# Earlier results, collected in PubChem BioAssay AID1259409 (Chemical Carcinogenesis Research Information System (CCRIS), 2018).
# System: rodent chemically induced tumor inhibition, incidence and multiplicity
# Test: CCRIS tumor inhibitor studies
structure (smiles),measurement,setting,value
C=C1CC[C@H](O)C/C1=C/C=C1\CCC[C@]2(C)[C@@H]([C@H](C)CCCC(C)C)CC[C@@H]12,"tumour outcome (control, treated, inhibition, significance)","Carcinogen: N-BUTYL-N-(4-HYDROXYBUTYL)NITROSAMINE, 3817-11-6, Dose [Inhibitor]: 0.002% DIET DAILY FOR 7 WK FOLLOWED BY 1 WK OF NO TREATMENT THEN 5 WK OF 0.001% DIET DAILY AND NO FURTHER TREATMENT THRO, Route [Inhibitor]: ORAL, Species: RAT, Strain/Sex: F344/MALE, Target Tissue: Type of Lesion: URINARY BLADDER: PAPILLOMA, Dose [Carcinogen]: 0.01% IN DRINKING WATER FOR 4 WK, Promoter: NONE USED","33%, 41%, -24%, not significant"
same,"tumour outcome (control, treated, inhibition, significance)","Carcinogen: N-METHYL-N-NITROSOUREA, 684-93-5, Dose [Inhibitor]: 0, 3.3 UG/KG OF DIET FOR 147 D (STUDY DURATION: 150 D), Route [Inhibitor]: ORAL, Species: RAT, Strain/Sex: SPRAGUE-DAWLEY/FEMALE, Target Tissue: Type of Lesion: MAMMARY GLAND: ADENOCARCINOMA, Dose [Carcinogen]: 50 MG/KG BW ONCE 3 D BEFORE INITIAL INHIBITOR DOSE, Promoter: NONE USED","25/25 (100%), 25/25 (100%), 0%, not significant"
same,"tumour outcome (control, treated, inhibition, significance)","Carcinogen: N-METHYL-N-NITROSOUREA, 684-93-5, Dose [Inhibitor]: 0, 10 UG/KG OF DIET FOR 147 D (STUDY DURATION: 150 D), Route [Inhibitor]: ORAL, Species: RAT, Strain/Sex: SPRAGUE-DAWLEY/FEMALE, Target Tissue: Type of Lesion: MAMMARY GLAND: ADENOCARCINOMA, Dose [Carcinogen]: 50 MG/KG BW ONCE 3 D BEFORE INITIAL INHIBITOR DOSE, Promoter: NONE USED","25/25 (100%), 25/25 (100%), 0%, not significant"
CC(C(=O)O)c1ccc2c(c1)[nH]c1ccc(Cl)cc12 (stereo not given),"tumour outcome (control, treated, inhibition, significance)","Carcinogen: 7,12-DIMETHYLBENZ[A]ANTHRACENE, 57-97-6, Dose [Inhibitor]: 0, 0.02% IN 20% FAT DIET CONTAINING 0.5% LINOLEIC ACID BEGINNING 7 D POST CARCINOGEN DOSE AND CONTINUING FOR DURATION OF, Route [Inhibitor]: ORAL, Species: RAT, Strain/Sex: SPRAGUE-DAWLEY/FEMALE, Target Tissue: Type of Lesion: MAMMARY GLAND: ADENOCARCINOMA, Dose [Carcinogen]: 5 MG AT 50-53 DAYS OF AGE, Promoter: NONE USED","56%, 52%, 7%, not calculated"
same,"tumour outcome (control, treated, inhibition, significance)","Carcinogen: 7,12-DIMETHYLBENZ[A]ANTHRACENE, 57-97-6, Dose [Inhibitor]: 0, 0.02% IN 20% FAT DIET CONTAINING 4% LINOLEIC ACID BEGINNING 7 D POST CARCINOGEN DOSE AND CONTINUING FOR DURATION OF S, Route [Inhibitor]: ORAL, Species: RAT, Strain/Sex: SPRAGUE-DAWLEY/FEMALE, Target Tissue: Type of Lesion: MAMMARY GLAND: ADENOCARCINOMA, Dose [Carcinogen]: 5 MG AT 50-53 DAYS OF AGE, Promoter: NONE USED","53%, 61%, -15%, not calculated"
same,"tumour outcome (control, treated, inhibition, significance)","Carcinogen: 7,12-DIMETHYLBENZ[A]ANTHRACENE, 57-97-6, Dose [Inhibitor]: 0, 0.02% IN 20% FAT DIET CONTAINING 12% LINOLEIC ACID BEGINNING 7 D POST CARCINOGEN DOSE AND CONTINUING FOR DURATION OF, Route [Inhibitor]: ORAL, Species: RAT, Strain/Sex: SPRAGUE-DAWLEY/FEMALE, Target Tissue: Type of Lesion: MAMMARY GLAND: ADENOCARCINOMA, Dose [Carcinogen]: 5 MG AT 50-53 DAYS OF AGE, Promoter: NONE USED","69%, 55%, 20%, not calculated"
same,"tumour outcome (control, treated, inhibition, significance)","Carcinogen: 7,12-DIMETHYLBENZ[A]ANTHRACENE, 57-97-6, Dose [Inhibitor]: 0, 0.02% IN HIGH FAT DIET (20% CORN OIL) BEGINNING 7 D POST CARCINOGEN DOSE AND CONTINUING FOR DURATION OF STUDY (STUDY, Route [Inhibitor]: ORAL, Species: RAT, Strain/Sex: SPRAGUE-DAWLEY/FEMALE, Target Tissue: Type of Lesion: MAMMARY GLAND: ADENOCARCINOMA, Dose [Carcinogen]: 5 MG AT 50-53 DAYS OF AGE, Promoter: NONE USED","88%, 91%, -3%, not calculated"
same,"tumour outcome (control, treated, inhibition, significance)","Carcinogen: 7,12-DIMETHYLBENZ[A]ANTHRACENE, 57-97-6, Dose [Inhibitor]: 0, 0.02% IN HIGH FAT DIET (20% CORN OIL) BEGINNING 7 D POST CARCINOGEN DOSE AND CONTINUING FOR DURATION OF STUDY (STUDY, Route [Inhibitor]: ORAL, Species: RAT, Strain/Sex: SPRAGUE-DAWLEY/FEMALE, Target Tissue: Type of Lesion: MAMMARY GLAND: TUMOR, Dose [Carcinogen]: 5 MG AT 50-53 DAYS OF AGE, Promoter: NONE USED","47%, 56%, -19%, not calculated"
same,"tumour outcome (control, treated, inhibition, significance)","Carcinogen: 7,12-DIMETHYLBENZ[A]ANTHRACENE, 57-97-6, Dose [Inhibitor]: 0, 0.02% IN NORMAL FAT DIET (5% CORN OIL) BEGINNING 7 D POST CARCINOGEN DOSE AND CONTINUING FOR DURATION OF STUDY (STUDY, Route [Inhibitor]: ORAL, Species: RAT, Strain/Sex: SPRAGUE-DAWLEY/FEMALE, Target Tissue: Type of Lesion: MAMMARY GLAND: ADENOCARCINOMA, Dose [Carcinogen]: 5 MG AT 50-53 DAYS OF AGE, Promoter: NONE USED","59%, 83%, -41%, not calculated"
C/C=C/C1=CC2=C(CO1)C(=O)[C@]1(C)OC(=O)[C@H](C(=O)CCCCC)[C@H]1C2,"tumour outcome (control, treated, inhibition, significance)","Carcinogen: PEROXYNITRITE [19059-14-4], Dose [Inhibitor]: 0.0025% FOR 2 WKS BEFORE PROMOTER (STUDY DURATION: 20 WK), Route [Inhibitor]: DRINKING WATER, Species: MOUSE, Strain/Sex: SENCAR/FEMALE (15,?)/(15,?), Target Tissue: Type of Lesion: SKIN: PAPILLOMA, Dose [Carcinogen]: 390 NM IN 0.1 ML 1 MM NAOH ONCE 1 WK AFTER INHIBITOR, Promoter: 12-O-TETRADECANOYLPHORBOL-13-ACETATE [16561-29-8]","100%, 80%, 20%, not significant"
same,"tumour outcome (control, treated, inhibition, significance)","Carcinogen: UVB IRRADIATION, Dose [Inhibitor]: 0.0025% IN DRINKING WATER FOR 2 WKS BEGINNING WHILE MICE RECEIVED UVB (STUDY DURATION: 20 WK), Route [Inhibitor]: DRINKING WATER, Species: MOUSE, Strain/Sex: SENCAR/FEMALE (15,?)/(15,?), Target Tissue: Type of Lesion: SKIN: PAPILLOMA, Dose [Carcinogen]: 15 MIN EACH D FOR 3 D, Promoter: 12-O-TETRADECANOYLPHORBOL-13-ACETATE [16561-29-8]","100%, 53%, 47%, not significant"
CC/C=C\C/C=C\C/C=C\C/C=C\C/C=C\CCCC(=O)O,"tumour outcome (control, treated, inhibition, significance)","Carcinogen: 7,12-DIMETHYLBENZ[A]ANTHRACENE, 57-97-6, Dose [Inhibitor]: 0, 0.5 ML 2/WK FOR 19 WK BEGINNING 1 WK POST CARCINOGEN DOSE ADMINISTERED TO RATS FED HIGH-FAT (20% CORN OIL) DIETS (STU, Route [Inhibitor]: GAVAGE, Species: RAT, Strain/Sex: SPRAGUE-DAWLEY/FEMALE, Target Tissue: Type of Lesion: MAMMARY GLAND: ADENOCARCINOMA, Dose [Carcinogen]: 5 MG ONCE AT 50 D OF AGE, Promoter: NONE USED","24/30 (80%), 10/24 (42%), 48%, p<0.05"
same,"tumour outcome (control, treated, inhibition, significance)","Carcinogen: AZOXYMETHANE, 25843-45-2, Dose [Inhibitor]: 4.7% (VOL/VOL) IN 5% FAT DIET CONTAINING 0.3% LINOLEIC ACID FOR DURATION OF STUDY (STUDY DURATION: 26 WK), Route [Inhibitor]: ORAL, Species: RAT, Strain/Sex: DONRYU/MALE, Target Tissue: Type of Lesion: COLON: ADENOCARCINOMA, Dose [Carcinogen]: 7.4 MG/KG BW IN 0.9% SALINE SOLUTION 1/WK FOR FIRST 11 WK, Promoter: NONE USED","20/29 (69%), 10/30 (33%), 52%, p<0.01"
Cn1c(=O)[nH]c(=O)c2[nH]cnc21,"tumour outcome (control, treated, inhibition, significance)","Carcinogen: URETHANE, 51-79-6, Dose [Inhibitor]: 0.05 UMOL/G BW GIVEN AT 6 HR INTERVALS DURING THE PERIOD OF 0 TO 36 HR AFTER CARCINOGEN TREATMENT FOLLOWED BY 5 MO OBSER, Route [Inhibitor]: INTRAPERITONEAL, Species: MOUSE, Strain/Sex: ICR/FEMALE, Target Tissue: Type of Lesion: LUNG: PAPILLARY ADENOMA, Dose [Carcinogen]: 0.1 MG/G BW ONCE, Promoter: NONE USED","31/59 (53%), 26/44 (59%), -11%, not significant"
same,"tumour outcome (control, treated, inhibition, significance)","Carcinogen: URETHANE, 51-79-6, Dose [Inhibitor]: 0.25 UMOL/G BW 1/D DURING THE PERIOD OF 5 TO 9 D AFTER CARCINOGEN TREATMENT FOLLOWED BY OBSERVATION PERIOD UNTIL END OF, Route [Inhibitor]: INTRAPERITONEAL, Species: MOUSE, Strain/Sex: ICR/FEMALE, Target Tissue: Type of Lesion: LUNG: PAPILLARY ADENOMA, Dose [Carcinogen]: 1 MG/G BW ONCE, Promoter: NONE USED","49/53 (93%), 50/53 (94%), -1%, not significant"
